Columns and labels:
cow foot rot disease = experiment: treatment of cow foot rot disease; assay type: in vivo, cows; conditions: for Milk production (daily yield) / Total number of cured cows: n = 10
canine acute nephritis = experiment: treatment of canine acute nephritis; assay type: in vivo, dogs; conditions: 14 days, n = 10; for Positive rate of white blood cell (+++, %): urine
Experimental: Anemoside B4 injection prepared in example 3, with a concentration of 50 mg/mL.
Dogs suffering from acute nephritis are cases received by various pet hospitals in Chengdu city.
The sick dogs are characterized by loss of appetite, indigestion, depression, and a slight increase in body temperature.
Anemoside B4 injection was intravenously injected, 2 mL/time in low-dose group, 4 mL/time in medium-dose group, 8 mL/time in high-dose group, once a day; anemoside B4 injection was intramuscularly injected, 1 mL/time in low-dose group, 2 mL/time in the middle-dose group, 4 mL/time in the high-dose group, twice a day; the treatment was kept for 14 days.

[1] = high-dose, intravenous injection 60 mL (50 mg/mL), once a day, 4 days
[2] = high-dose, pulvis 1.5 g, external application, once every other day, 4 times
[3] = high-dose, subcutaneous injection 15 mL (50 mg/mL) in affected limbs, once a day, 4 days
[4] = low-dose, intravenous injection 20 mL (50 mg/mL), once a day, 4 days
[5] = low-dose, pulvis 0.5 g, external application, once every other day, 4 times
[6] = low-dose, subcutaneous injection 5 mL (50 mg/mL) in affected limbs, once a day, 4 days
[7] = medium-dose, intravenous injection 40 mL (50 mg/mL), once a day, 4 days
[8] = medium-dose, pulvis 1.0 g, external application, once every other day, 4 times
[9] = medium-dose, subcutaneous injection 10 mL (50 mg/mL) in affected limbs, once a day, 4 days
[10] = high-dose, intramuscular injection 4 mL/time (50 mg/mL), twice a day
[11] = high-dose, intravenous injection 8 mL/time (50 mg/mL), once a day
[12] = low-dose, intramuscular injection 1 mL/time (50 mg/mL), twice a day
[13] = low-dose, intravenous injection 2 mL/time (50 mg/mL), once a day
[14] = medium-dose, intramuscular injection 2 mL/time (50 mg/mL), twice a day
[15] = medium-dose, intravenous injection 4 mL/time (50 mg/mL), once a day

C=C(C)[C@@H]1CC[C@]2(C(=O)O[C@@H]3O[C@H](CO[C@@H]4O[C@H](CO)[C@@H](O[C@@H]5O[C@@H](C)[C@H](O)[C@@H](O)[C@H]5O)[C@H](O)[C@H]4O)[C@@H](O)[C@H](O)[C@H]3O)CC[C@]3(C)[C@H](CC[C@@H]4[C@@]5(C)CC[C@H](O[C@@H]6OC[C@H](O)[C@H](O)[C@H]6O[C@@H]6O[C@@H](C)[C@H](O)[C@@H](O)[C@H]6O)[C@@](C)(CO)[C@@H]5CC[C@]43C)[C@H]12 [anemoside B4]
cure rate (cow foot rot disease; high-dose subcutaneous injection group, middle- and high-dose pulvis groups): above 80% | Milk production (daily yield) (cow foot rot disease; [1]): 22.2 ± 1.5 kg/cow | Total number of cured cows (cow foot rot disease; [1]): 6 | Milk production (daily yield) (cow foot rot disease; [2]): 25.9 ± 2.4 kg/cow | Total number of cured cows (cow foot rot disease; [2]): 9 | Milk production (daily yield) (cow foot rot disease; [3]): 25.6 ± 2.8 kg/cow | Total number of cured cows (cow foot rot disease; [3]): 8 | Milk production (daily yield) (cow foot rot disease; [4]): 18.2 ± 1.4 kg/cow | Total number of cured cows (cow foot rot disease; [4]): 4 | Milk production (daily yield) (cow foot rot disease; [5]): 22.6 ± 2.5 kg/cow | Total number of cured cows (cow foot rot disease; [5]): 6 | Milk production (daily yield) (cow foot rot disease; [6]): 20.4 ± 1.9 kg/cow | Total number of cured cows (cow foot rot disease; [6]): 5 | Milk production (daily yield) (cow foot rot disease; [7]): 20.8 ± 2.2 kg/cow | Total number of cured cows (cow foot rot disease; [7]): 5 | Milk production (daily yield) (cow foot rot disease; [8]): 24.2 ± 1.7 kg/cow | Total number of cured cows (cow foot rot disease; [8]): 8 | Milk production (daily yield) (cow foot rot disease; [9]): 22.1 ± 1.6 kg/cow | Total number of cured cows (cow foot rot disease; [9]): 7 | Body temperature (canine acute nephritis; [10]): 39.0 ± 0.2 °C | Mortality rate (canine acute nephritis; [10]): 50% | Positive rate of urine protein (+++, %) (canine acute nephritis; [10]): 60% | Urine specific gravity (canine acute nephritis; [10]): 1.064 ± 0.02 | Body temperature (canine acute nephritis; [11]): 38.5 ± 0.4 °C | Mortality rate (canine acute nephritis; [11]): 30% | Positive rate of urine protein (+++, %) (canine acute nephritis; [11]): 30% | Urine specific gravity (canine acute nephritis; [11]): 1.003 ± 0.01 | Body temperature (canine acute nephritis; [12]): 39.5 ± 0.3 °C | Mortality rate (canine acute nephritis; [12]): 60% | Positive rate of urine protein (+++, %) (canine acute nephritis; [12]): 80% | Urine specific gravity (canine acute nephritis; [12]): 1.123 ± 0.01 | Body temperature (canine acute nephritis; [13]): 38.7 ± 0.5 °C | Mortality rate (canine acute nephritis; [13]): 50% | Positive rate of urine protein (+++, %) (canine acute nephritis; [13]): 50% | Urine specific gravity (canine acute nephritis; [13]): 1.017 ± 0.25 | Body temperature (canine acute nephritis; [14]): 39.3 ± 0.4 °C | Mortality rate (canine acute nephritis; [14]): 60% | Positive rate of urine protein (+++, %) (canine acute nephritis; [14]): 70% | Urine specific gravity (canine acute nephritis; [14]): 1.094 ± 0.04 | Body temperature (canine acute nephritis; [15]): 38.8 ± 0.3 °C | Mortality rate (canine acute nephritis; [15]): 40% | Positive rate of urine protein (+++, %) (canine acute nephritis; [15]): 40% | Urine specific gravity (canine acute nephritis; [15]): 1.005 ± 0.09 | Positive rate of white blood cell (+++, %) (canine acute nephritis; [10]): 70% | Positive rate of white blood cell (+++, %) (canine acute nephritis; [11]): 30% | Positive rate of white blood cell (+++, %) (canine acute nephritis; [12]): 80% | Positive rate of white blood cell (+++, %) (canine acute nephritis; [13]): 60% | Positive rate of white blood cell (+++, %) (canine acute nephritis; [14]): 80% | Positive rate of white blood cell (+++, %) (canine acute nephritis; [15]): 40%

From US11510933B2, “Use of Pulsatilla chinensis extract in the preparation of drugs for treatment of viral and/or bacterial diseases” (priority 2018, dated 2022)
